Measured values published in patent US20050090532A1, “Medicinal uses of dihydropyrazoles” (The Procter & Gamble Company, priority 2001, published 2005).

The molecules below were run on VEGF (assay: VEGF-ELISA assay, VEGF secretion from HL-1 cardiomyocyte cell line). Conditions: VEGF production; HL-1 cells, 18 hr, 10 concentrations 200 nM to 100 μM; read-out: EC50 (concentration of compound that induces the production of an amount of VEGF equal to half the maximum amount of VEGF induced by the compound).
Type: cell-based, murine
Experimental: Any compound of the present invention can be screened by a VEGF-ELISA assay. VEGF secretion is assayed in the HL-1 cardiomyocyte cell line as described in Claycomb. W. C., “HL-1 cells: a cardiac muscle cell line that contracts and retains phenotypic characteristics of the adult cardiomyocyte”, Proc. Natl. Acad. Sci U.S.A., Vol. 95, pp. 2979-84 (1998). For experiments, HL-1 cells are plated in 96-well plates at a density of 2×10^4 cells per well in growth medium: EXCEL 320 media (JRH Biosciences, Lenexia, Kans.) plus 10% fetal bovine serum (BioWhitaker), 100 nM retinoic acid (Sigma, St. Louis, Mo.), 10 μM norepinephrine (Sigma), 10 μg/ml insulin (Life Technologies, Grand Island, N.Y.), 1× non-essential amino acid supplement (Life Technologies), 50 μg/ml endothelial cell growth supplement (Upstate Biotechnology, Lake Placid, N.Y.), 100 units/ml penicillin, 100 units/ml streptomycin (Life Technologies). After 24 hrs, the media is replaced with a low-growth media (HL-1 media with 2% fetal bovine serum and without endothelial cell growth supplement) containing test compounds with 0.5% dimethyl sulfoxide (DMSO). After 18 hrs, conditioned media from the treated cells was assayed for VEGF content with a Murine VEGF-ELISA kit (R&D Systems, Minneapolis, Minn.). The amount of VEGF secreted into the media over an 18 hr period is normalized to positive control wells which are treated with a maximally effective concentration (1 mM) of deferoxamine mesylate (Sigma, St. Louis) and are reported as “percent activity,” where the VEGF in unstimulated wells is defined as 0% and the VEGF in wells treated with 1 mM deferoxamine is defined as 100%. Potency is determined by stimulating cells with 10 concentrations of test compounds (200 nM to 100 μM) and fitting the data to a variable slope sigmoidal dose-response curve using GraphPad Prism version 3.00 for Windows 95 (GraphPad Software, San Diego, Calif.). Determinations for each test compound are performed in three separate experiments and the means ± standard deviation of the […] and maximum response are evaluated. Compounds for pharmaceutical use are selected based upon the greatest percent activity.

| SMILES | EC50 [µM] |
| --- | --- |
| c1ccc(C2CC(c3ccccn3)=NN2c2ccccc2)cc1 (centres unmarked) [Example 1, 2-(1,5-Diphenyl-4,5-dihydro-1H-pyrazol-3-yl)-pyridine] | 23 |
| c1ccc(C2=NN(c3ccccn3)C(c3ccccc3)C2)cc1 (centres unmarked) [Example 2, 2-(3,5-Diphenyl-4,5-dihydro-pyrazol-1-yl)-pyridine] | 6 |
| Oc1ccccc1C1=NN(c2ccccn2)C(c2ccccc2)C1 (centres unmarked) [Example 3, 2-(5-Phenyl-1-pyridin-2-yl-4,5-dihydro-1H-pyrazol-3-yl)-phenol] | 1.7 |
| Oc1ccccc1C1=NN(c2nc3ccccc3s2)C(c2ccccc2)C1 (centres unmarked) [Example 4, 2-(1-Benzothiazol-2-yl-5-phenyl-4,5-dihydro-1H-pyrazol-3-yl)-phenol] | 27 |
| Cc1ccc(C2CC(c3ccccc3O)=NN2c2ccccn2)cc1 (centres unmarked) [Example 5, 2-(1-Pyridin-2-yl-5-p-tolyl-4,5-dihydro-1H-pyrazol-3-yl)-phenol] | 5.7 |
| COc1ccc(C2CC(c3ccccc3O)=NN2c2ccccn2)cc1 (centres unmarked) [Example 6, 2-[5-(4-Methoxy-phenyl)-1-pyridin-2-yl-4,5-dihydro-1H-pyrazol-3-yl]-phenol] | 5.68 |
| COc1ccccc1C1CC(c2ccccc2O)=NN1c1ccccn1 (centres unmarked) [Example 7, 2-[5-(2-Methoxy-phenyl)-1-pyridin-2-yl-4,5-dihydro-1H-pyrazol-3-yl]-phenol] | 5.5 |
| Oc1ccccc1C1=NN(c2ccccn2)C(c2ccccn2)C1 (centres unmarked) [Example 8, 2-(1,5-Di-pyridin-2-yl-4,5-dihydro-1H-pyrazol-3-yl)-phenol] | 5.4 |
| Oc1ccccc1C1=NN(c2ccccn2)C(c2ccccc2O)C1 (centres unmarked) [Example 9, 2-[5(2-hydroxy-phenyl)-1-pyridin-2-yl-4,5-dihydro-1H-pyrazol-3-yl]-phenol] | 5.4 |
| CN1N=C(c2ccccc2O)CC1c1ccccn1 (centres unmarked) [Example 10, 2-(1-Methyl-5-pyridin-2-yl-4,5-dihydro-1H-pyrazol-3-yl)-phenol] | 92 |
| CN1N=C(c2ccccc2O)CC1c1nccs1 (centres unmarked) [Example 11, 2-(1-Methyl-5-thiazol-2-yl-4,5-dihydro-1H-pyrazol-3-yl)-phenol] | 12 |
| OCCN1N=C(c2ccccc2O)CC1c1ccccn1 (centres unmarked) [Example 12, 2-[1-(2-Hydroxy-ethyl)-5-pyridin-2-yl-4,5-dihydro-1H-pyrazol-3-yl]-phenol] | 65 |
| N#CCCN1N=C(c2ccccc2O)CC1c1ccccn1 (centres unmarked) [Example 13, 3-[3-(2-Hydroxy-phenyl)-5-pyridin-2-yl-4,5-dihydro-pyrazol-1-yl]-propionitrile] | 18 |
| Cc1ccc(N2N=C(c3ccccn3)CC2c2ccccc2)cc1 (centres unmarked) [Example 14, 2-(5-Phenyl-1-p-tolyl-4,5-dihydro-1H-pyrazol-3-yl)-pyridine] | 2 |
| Brc1ccc(N2N=C(c3ccccn3)CC2c2ccccc2)cc1 (centres unmarked) [Example 15, 2-[1-(4-Bromo-phenyl)-5-phenyl-4,5-dihydro-1H-pyrazol-3-yl]-pyridine] | 6.3 |
| Clc1cccc(C2CC(c3ccccn3)=NN2c2ccccc2)c1 (centres unmarked) [Example 16, 2-[5-(3-Chloro-phenyl)-1-phenyl-4,5-dihydro-1H-pyrazol-3-yl]-pyridine] | 1.7 |
| CN(C)c1ccc(C2CC(c3ccccc3)=NN2c2ccccc2)cc1 (centres unmarked) [Example 17, [4-(2,5-Diphenyl-3,4-dihydro-2H-pyrazol-3-yl)-phenyl]-dimethyl-amine] | 6 |
| COc1ccc(C2CC(c3ccc4ccccc4c3)=NN2C)cc1 (centres unmarked) [Example 18, 5-(4-Methoxy-phenyl)-1-methyl-3-naphthalen-2-yl-4,5-dihydro-1H-pyrazole] | 11 |
| CN1N=C(c2ccc3ccccc3c2)CC1c1ccc(F)cc1 (centres unmarked) [Example 19, 5-(4-Fluoro-phenyl)-1-methyl-3-naphthalen-2-yl-4,5-dihydro-1H-pyrazole] | 3.6 |
| CN1N=C(c2ccc3ccccc3c2)CC1c1ccc(C(F)(F)F)cc1 (centres unmarked) [Example 20, 1-Methyl-3-naphthalen-2-yl-5-(4-trifluoromethyl-phenyl)-4,5-dihydro-1H-pyrazole] | 13 |
